According to the supplement of paper PMC10307832:

Assays:
Test in all cases: relative viability (nuclei count vs DMSO), 5 days (fraction); higher = more cells survive
Veliparib + Foretinib = compound: C[C@]1(c2nc3c(C(N)=O)cccc3[nH]2)CCCN1 [Veliparib] + COc1cc2c(Oc3ccc(NC(=O)C4(C(=O)Nc5ccc(F)cc5)CC4)cc3F)ccnc2cc1OCCCN1CCOCC1 [Foretinib] (partner 0.25 µM)
How it was run: (§1)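 Values are medians from duplicate plates. Each reflects relative viability, defined as the nuclei count of treated wells over that of vehicle wells. Lung cancer cell lines in 1536-well plates were pin-tool dosed one day after seeding with one drug alone or with a fixed anchor-drug dose plus five library-drug doses (not always all listed) in √10 steps, then fixed, stained and imaged at 4× after 5 days.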

[1] = compound: COC1=CC=C(C=C1)CN2C=CC3=C2C=C(C=C3)C(=O)NO + Nc1nc2[nH]cc(CCc3ccc(C(=O)N[C@@H](CCC(=O)O)C(=O)O)cc3)c2c(=O)[nH]1 [Pemetrexed] (partner 0.2 µM)
How it was run: as §1

Veliparib + Pemetrexed = compound: C[C@]1(c2nc3c(C(N)=O)cccc3[nH]2)CCCN1 [Veliparib] + Nc1nc2[nH]cc(CCc3ccc(C(=O)N[C@@H](CCC(=O)O)C(=O)O)cc3)c2c(=O)[nH]1 [Pemetrexed] (partner 0.2 µM)
How it was run: as §1

Veliparib + Trametinib = compound: C[C@]1(c2nc3c(C(N)=O)cccc3[nH]2)CCCN1 [Veliparib] + CC(=O)Nc1cccc(-n2c(=O)n(C3CC3)c(=O)c3c(Nc4ccc(I)cc4F)n(C)c(=O)c(C)c32)c1 [Trametinib] (partner 0.02 µM)
How it was run: as §1

Cell Line | relative viability (Veliparib + Foretinib; first compound 0.06325 µM) | relative viability (Veliparib + Foretinib; first compound 0.2 µM) | relative viability (Veliparib + Foretinib; first compound 0.6325 µM) | relative viability (Veliparib + Foretinib; first compound 2 µM) | relative viability ([1]; first compound 0.08 µM) | relative viability ([1]; first compound 0.253 µM) | relative viability ([1]; first compound 0.8 µM) | relative viability ([1]; first compound 2.53 µM) | relative viability ([1]; first compound 8 µM) | relative viability (Veliparib + Pemetrexed; first compound 0.02 µM) | relative viability (Veliparib + Pemetrexed; first compound 0.06325 µM) | relative viability (Veliparib + Pemetrexed; first compound 0.2 µM) | relative viability (Veliparib + Pemetrexed; first compound 0.6325 µM) | relative viability (Veliparib + Pemetrexed; first compound 2 µM) | relative viability (Veliparib + Trametinib; first compound 0.02 µM) | relative viability (Veliparib + Trametinib; first compound 0.06325 µM) | relative viability (Veliparib + Trametinib; first compound 0.2 µM) | relative viability (Veliparib + Trametinib; first compound 0.6325 µM) | relative viability (Veliparib + Trametinib; first compound 2 µM) | relative viability (Veliparib + Foretinib; first compound 0.02 µM)
NCI-H1355 | 0.879 | 0.965 | 0.932 | 0.982 | 0.538 | 1.06 | 0.978 | 1.06 | 0.998 | 0.874 | 0.998 | 1.01 | 0.962 | 1 | 0.368 | 0.282 | 0.438 | 0.422 | 0.447 | –
Calu-6 | 0.82 | 0.852 | 0.84 | 0.969 | – | – | – | – | – | – | – | – | – | – | – | – | – | – | – | 0.967
NCI-H661 | 1.02 | 0.866 | 0.892 | 0.998 | – | 0.889 | 0.836 | 0.957 | 0.954 | 0.973 | 0.897 | 0.918 | 0.865 | 0.901 | 0.525 | 0.646 | 0.584 | 0.543 | 0.64 | 0.999
NCI-H1975 | 0.96 | 0.903 | 0.881 | 0.979 | 0.288 | 0.294 | 0.299 | 0.291 | 0.286 | 0.292 | 0.332 | 0.295 | 0.292 | 0.311 | 0.339 | 0.335 | 0.329 | 0.344 | 0.331 | 1.12
COR-L23 | 0.987 | 0.956 | 0.962 | 0.866 | 0.206 | 0.2 | 0.192 | 0.217 | 0.197 | 0.206 | 0.202 | 0.201 | 0.181 | 0.202 | 0.47 | 0.609 | 0.501 | 0.539 | 0.613 | 0.958
HCC-15 | 1.01 | 1.05 | 1.05 | 1.06 | 0.203 | 0.237 | 0.243 | 0.234 | 0.217 | 0.219 | 0.214 | 0.228 | 0.2 | 0.239 | 0.422 | 0.374 | 0.429 | 0.357 | 0.4 | –
NCI-H1651 | 0.74 | 0.762 | 0.724 | 0.692 | 0.561 | 0.523 | 0.587 | 0.512 | 0.56 | 0.55 | 0.65 | 0.578 | 0.537 | 0.563 | 0.844 | 0.836 | 0.785 | 0.77 | 0.8 | 0.793
CAL-12T | 1.04 | 1.15 | 1.09 | 1.29 | 1.2 | 1.27 | 1.09 | 1.1 | 1.27 | 1.23 | 1.06 | 1.32 | 1.09 | 1.3 | 0.42 | 0.378 | 0.328 | 0.256 | 0.374 | 1.2
LK-2 | 1.26 | 1.32 | 1.13 | 1.15 | – | 0.207 | 0.354 | 0.353 | 0.243 | 0.324 | 0.307 | 0.311 | 0.203 | 0.299 | 0.773 | 0.773 | 0.788 | 0.763 | 0.766 | –
NCI-H1703 | – | 0.42 | 0.321 | 0.355 | – | – | – | – | – | – | – | – | – | – | – | – | – | – | – | –
NCI-H727 | 0.66 | 0.816 | 0.694 | 1.04 | – | – | – | – | – | – | – | – | – | – | 0.379 | 0.39 | 0.42 | 0.428 | 0.416 | 1.22
NCI-H1792 | – | – | – | – | 0.907 | 0.952 | 1 | 1.05 | 0.832 | 0.724 | 0.503 | 0.653 | 0.786 | 0.66 | 0.499 | 0.411 | 0.41 | 0.438 | 0.401 | –
NCI-H1648 | – | – | – | – | 0.794 | 0.853 | 0.829 | 0.717 | 0.641 | 1 | – | – | 1.02 | 0.709 | 0.631 | – | – | 0.557 | 0.516 | –
EBC-1 | 0.11 | 0.12 | 0.12 | 0.108 | – | – | – | – | – | – | – | – | – | – | – | – | – | – | – | 0.0919
ABC-1 | 0.858 | 1.12 | 0.961 | 1.15 | – | – | – | – | – | – | – | – | – | – | – | – | – | – | – | –
A549 | 0.878 | 0.962 | 0.807 | 0.963 | – | – | – | – | – | – | – | – | – | – | – | – | – | – | – | 1.07
HCC-44 | – | – | – | – | 0.628 | 0.665 | 0.585 | 0.649 | 0.664 | 0.606 | 0.656 | 0.655 | 0.59 | 0.63 | 1.07 | 0.938 | 1.14 | 1.04 | 1.06 | –
NCI-H1299 | 1.04 | 1.05 | 1.04 | 1.08 | – | – | – | – | – | – | – | – | – | – | – | – | – | – | – | 1.16
NCI-H1563 | 0.917 | 1.03 | 0.918 | 1.05 | 0.489 | 0.708 | 0.839 | 0.728 | 0.761 | 0.694 | 0.766 | 0.742 | 0.728 | 0.685 | – | – | – | – | – | 0.845
NCI-H522 | – | – | – | – | – | 1.01 | 1.06 | 0.84 | 1 | 0.981 | 0.814 | 0.761 | 1.16 | 0.785 | 0.716 | 0.608 | 0.805 | 0.771 | 1.01 | –
